Results published in US20240261417A1, “SOS1 DEGRADING AGENT AND PREPARATION METHOD THEREFOR AND APPLICATION THEREOF” (SHANGHAI LEADINGTAC PHARMACEUTICAL CO. LTD., priority 2021, published 2024).

Target: T1, SOS1 protein (Homo sapiens, UniProt Q07889)
T1 sequence (Q07889 1-1333): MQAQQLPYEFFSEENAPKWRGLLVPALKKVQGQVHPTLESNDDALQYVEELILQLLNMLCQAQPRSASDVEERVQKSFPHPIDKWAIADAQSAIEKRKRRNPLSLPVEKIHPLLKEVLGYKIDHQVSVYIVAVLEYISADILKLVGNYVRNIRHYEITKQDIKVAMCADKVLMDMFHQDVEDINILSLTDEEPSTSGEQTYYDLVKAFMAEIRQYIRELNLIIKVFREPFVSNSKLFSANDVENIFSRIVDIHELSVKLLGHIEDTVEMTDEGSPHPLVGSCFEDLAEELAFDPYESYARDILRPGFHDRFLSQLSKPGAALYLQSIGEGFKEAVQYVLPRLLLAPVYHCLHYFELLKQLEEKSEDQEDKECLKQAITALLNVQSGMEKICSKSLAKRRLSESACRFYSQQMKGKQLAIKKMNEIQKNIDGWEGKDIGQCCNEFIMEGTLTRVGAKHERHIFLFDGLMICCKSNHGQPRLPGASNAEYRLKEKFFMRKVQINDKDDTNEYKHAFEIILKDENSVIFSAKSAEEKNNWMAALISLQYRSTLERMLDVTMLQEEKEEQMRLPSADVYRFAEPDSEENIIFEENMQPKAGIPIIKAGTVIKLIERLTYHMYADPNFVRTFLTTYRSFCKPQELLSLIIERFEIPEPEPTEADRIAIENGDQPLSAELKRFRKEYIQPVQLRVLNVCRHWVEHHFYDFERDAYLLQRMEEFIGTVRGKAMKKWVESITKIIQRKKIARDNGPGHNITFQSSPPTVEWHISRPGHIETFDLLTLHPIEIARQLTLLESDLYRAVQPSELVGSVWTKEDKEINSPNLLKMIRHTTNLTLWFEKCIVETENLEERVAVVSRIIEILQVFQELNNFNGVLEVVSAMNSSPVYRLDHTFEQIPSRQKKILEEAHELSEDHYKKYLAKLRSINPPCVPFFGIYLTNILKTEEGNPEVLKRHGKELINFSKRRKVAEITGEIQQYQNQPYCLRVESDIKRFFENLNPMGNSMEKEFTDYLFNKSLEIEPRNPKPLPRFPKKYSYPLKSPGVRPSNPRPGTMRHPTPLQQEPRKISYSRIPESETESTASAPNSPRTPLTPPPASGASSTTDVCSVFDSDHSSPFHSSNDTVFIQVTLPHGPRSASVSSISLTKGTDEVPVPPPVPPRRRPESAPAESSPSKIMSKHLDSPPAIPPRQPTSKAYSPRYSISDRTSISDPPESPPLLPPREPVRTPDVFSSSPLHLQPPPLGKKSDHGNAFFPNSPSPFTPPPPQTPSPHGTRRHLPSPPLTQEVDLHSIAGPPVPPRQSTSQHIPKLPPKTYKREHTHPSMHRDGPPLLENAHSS
Test: SOS1 degradation assay (Western blot), NCI-H358 cells
Type: cell-based
Parameters: The degradation of SOS1 by the compounds was investigated on KRAS G12C mutant human non-small cell lung cancer cells NCI-H358; host or cells: NCI-H358 (human cancer cell lines)
Details: SOS1 degradation, NCI-H358 cells, 24 h, Western blot; for DC50: read-out: NCI-H358 (G12C) DC50; for Dmax: read-out: NCI-H358 (G12C) Dmax
How it was run: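 Cells at 5×10^5 per well were treated for 24 h at 37 °C with compound at 0.03–3000 nM final. SOS1 in lysates was measured by Western blot with chemiluminescent densitometry and normalised to the control group. DC50 and Dmax came from nonlinear fits against log concentration.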

Molecule `COc1cc2nc(C)nc(N[C@H](C)c3cc(N)cc(C(F)(F)F)c3)c2cc1OC1CCN(CC2CCC3(CC2)CCN(C(=O)c2ccc(Cl)c(N4CCC(=O)NC4=O)c2)CC3)CC1` [Example 6, (R)-1-(5-(9-((4-((4-((1-(3-amino-5-(trifluoromethyl)phenyl)ethyl)amino)-7-methoxy-2-methylquinazolin-6-yl)oxy)piperidin-1-yl)methyl)-3-azaspiro[5.5]undecane-3-carbonyl)-2-chlorophenyl)dihydropyrimidine-2,4(1H,3H)-dione] has a DC50 of 1 to 10 µM and a Dmax of 30 to 50%.

`COc1cc2nc(C)nc(N[C@H](C)c3cc(-c4c(Cl)cccc4CN(C)C)cs3)c2cc1[C@H]1CC[C@H](C(=O)N2CCC(CCOCC3CCN(c4ccc5c(c4)C(=O)N(C4CCC(=O)NC4=O)C5=O)CC3)CC2)CC1` (stereo partly drawn) [Example 41] showed a DC50 of 0.1 to 0.5 µM and a Dmax of 80 to 100%.

For `COc1cc2nc(C)nc(N[C@H](C)c3cc(N)cc(C(F)(F)F)c3)c2cc1[C@H]1CC[C@H](C(=O)N2CCN(CC3CCC4(CC3)CCN(C(=O)c3ccc(N5CCC(=O)NC5=O)cc3)CC4)CC2)CC1` [Example 22, 1-(4-(9-((4-((1R,4R)-4-(4-(((R)-1-(3-amino-5-(trifluoromethyl)phenyl)ethyl)amino)-7-methoxy-2-methylquinazolin-6-yl)cyclohexane-1-carbonyl)piperazin-1-yl)methyl)-3-azaspiro[5.5]undecane-3-carbonyl)phenyl)dihydropyrimidine-2,4(1H,3H)-dione], the DC50 was 1 to 10 µM and the Dmax was 30 to 50%.

With `COc1cc2nc(C)nc(N[C@H](C)c3cc(N)cc(C(F)(F)F)c3)c2cc1[C@H]1CC[C@H](C(=O)N2CCC(CCN(C)CC3CCN(C(=O)c4ccc(Cl)c(N5CCC(=O)NC5=O)c4)CC3)CC2)CC1` [Example 25, 1-(5-(4-(((2-(1-((1R,4R)-4-(4-(((R)-1-(3-amino-5-(trifluoromethyl)phenyl)ethyl)amino)-7-methoxy-2-methylquinazolin-6-yl)cyclohexane-1-carbonyl)piperidin-4-yl)ethyl)(methyl)amino)methyl)piperidine-1-carbonyl)-2-chlorophenyl)dihydropyrimidine-2,4(1H,3H)-dione] the DC50 was 1 to 10 µM and the Dmax was < 30%.

`COc1cc2nc(C)nc(N[C@H](C)c3cc(N)cc(C(F)(F)F)c3)c2cc1C1=CCC(C(=O)N2CCC(CCOCC3CCN(C(=O)c4ccc(OC)c(N5CCC(=O)NC5=O)c4)CC3)CC2)CC1` (stereo partly drawn) [Example 32, 1-(5-(4-((2-(1-(4-(4-(((R)-1-(3-amino-5-(trifluoromethyl)phenyl)ethyl)amino)-7-methoxy-2-methylquinazolin-6-yl)cyclohex-3-ene-1-carbonyl)piperidin-4-yl)ethoxy)methyl)piperidine-1-carbonyl)-2-methoxyphenyl)dihydropyrimidine-2,4(1H,3H)-dione] was tested, and the DC50 was < 0.05 µM and the Dmax was 80 to 100%.

`COc1cc2nc(C)nc(N[C@H](C)c3cc(N)cc(C(F)(F)F)c3)c2cc1[C@H]1CC[C@H](C(=O)N2CCN(CC3CCC4(CC3)CCN(C(=O)c3cccc(N5CCC(=O)NC5=O)c3)CC4)CC2)CC1` [Example 21, 1-(3-(9-((4-((1R,4R)-4-(4-(((R)-1-(3-amino-5-(trifluoromethyl)phenyl)ethyl)amino)-7-methoxy-2-methylquinazolin-6-yl)cyclohexane-1-carbonyl)piperazin-1-yl)methyl)-3-azaspiro[5.5]undecane-3-carbonyl)phenyl)dihydropyrimidine-2,4(1H,3H)-dione] showed a DC50 of 1 to 10 µM and a Dmax of 30 to 50%.

With `COc1cc2nc(C)nc(N[C@H](C)c3cc(N)cc(C(F)(F)F)c3)c2cc1[C@H]1CC[C@H](C(=O)N2CCN(CC#CC3CCN(C(=O)c4ccc(Cl)c(N5CCC(=O)NC5=O)c4)CC3)CC2)CC1` [Example 27, 1-(5-(4-(3-(4-((1R,4R)-4-(4-(((R)-1-(3-amino-5-(trifluoromethyl)phenyl)ethyl)amino)-7-methoxy-2-methylquinazolin-6-yl)cyclohexane-1-carbonyl)piperazin-1-yl)prop-1-yn-1-yl)piperidine-1-carbonyl)-2-chlorophenyl)dihydropyrimidine-2,4(1H,3H)-dione] the DC50 was 1 to 10 µM and the Dmax was < 30%.

`COc1cc2nc(C)nc(N[C@H](C)c3cc(N)cc(C(F)(F)F)c3)c2cc1C1CCC(C(=O)N2CCC(CCOCC3CCN(C(=O)c4ccc5c(c4)C(=O)N(C4CCC(=O)NC4=O)C5=O)CC3)CC2)CC1` (stereo partly drawn) [Example 39, 5-(4-((2-(1-((1S,4S)-4-(4-(((R)-1-(3-amino-5-(trifluoromethyl)phenyl)ethyl)amino)-7-methoxy-2-methylquinazolin-6-yl)cyclohexane-1-carbonyl)piperidin-4-yl)ethoxy)methyl)piperidine-1-carbonyl)-2-(2,6-dioxopiperidin-3-yl)isoindoline-1,3-dione] was tested, and the DC50 was < 0.05 µM and the Dmax was 80 to 100%.

`COc1cc2nc(C)nc(N[C@H](C)c3cc(NC(C)=O)cc(C(F)(F)F)c3)c2cc1[C@H]1CC[C@H](C(=O)N2CCN(CC3CCC4(CC3)CCN(C(=O)c3ccc(Cl)c(N5CCC(=O)NC5=O)c3)CC4)CC2)CC1` [Example 17, N-(3-((R)-1-((6-((1R,4R)-4-(4-((3-(4-chloro-3-(2,4-dioxotetrahydropyrimidin-1(2H)-yl)benzoyl)-3-azaspiro[5.5]undecane-9-yl)methyl)piperazine-1-carbonyl)cyclohexyl)-7-methoxy-2-methylquinazolin-4-yl)amino)ethyl)-5-(trifluoromethyl)phenyl)acetamide] showed a DC50 of 1 to 10 µM and a Dmax of 30 to 50%.

In the case of `COc1cc2nc(C)nc(N[C@H](C)c3cc(N)cc(C(F)(F)F)c3)c2cc1[C@H]1CC[C@H](C(=O)N2CCC(CCC3CCN(C(=O)c4ccc(Cl)c(N5CCC(=O)NC5=O)c4)CC3)CC2)CC1` [Example 15, 1-(5-(4-(2-(1-((1R,4R)-4-(4-(((R)-1-(3-amino-5-(trifluoromethyl)phenyl)ethyl)amino)-7-methoxy-2-methylquinazolin-6-yl)cyclohexane-1-carbonyl)piperidin-4-yl)ethyl)piperidine-1-carbonyl)-2-chlorophenyl)dihydropyrimidine-2,4(1H,3H)-dione], the DC50 is reported as 1 to 10 µM and the Dmax is reported as < 30%.

`COc1cc2nc(C)nc(N[C@H](C)c3cc(N)cc(C(F)(F)F)c3)c2cc1[C@H]1CC[C@H](C(=O)N2CCN(CC3CCC4(CC3)CCN(C(=O)c3ccc(F)c(N5CCC(=O)NC5=O)c3)CC4)CC2)CC1` [Example 24, 1-(5-(9-((4-((1R,4R)-4-(4-(((R)-1-(3-amino-5-(trifluoromethyl)phenyl)ethyl)amino)-7-methoxy-2-methylquinazolin-6-yl)cyclohexane-1-carbonyl)piperazin-1-yl)methyl)-3-azaspiro[5.5]undecane-3-carbonyl)-2-fluorophenyl)dihydropyrimidine-2,4(1H,3H)-dione] was tested, and the DC50 was < 0.05 µM and the Dmax was 80 to 100%.

With `COc1cc2nc(C)nc(N[C@H](C)c3cc(N)cc(C(F)(F)F)c3)c2cc1[C@H]1CC[C@H](C(=O)N2CCC(CCCN(C)C3CCN(Cc4ccc(Cl)c(N5CCC(=O)NC5=O)c4)CC3)CC2)CC1` [Example 38, 1-(5-((4-((3-(1-((1R,4R)-4-(4-(((R)-1-(3-amino-5-(trifluoromethyl)phenyl)ethyl)amino)-7-methoxy-2-methylquinazolin-6-yl)cyclohexane-1-carbonyl)piperidin-4-yl)propyl)(methyl)amino)piperidin-1-yl)methyl)-2-chlorophenyl)dihydropyrimidine-2,4(1H,3H)-dione] the DC50 was 1 to 10 µM and the Dmax was < 30%.
